The text below walks through data of patent publication US20250064789A1, “KETOAMIDE DERIVATIVES AND PHARMACEUTICAL USES THEREOF” (priority 2022, published 2025).

In general, IC50 refers to the concentration needed to halve the response being measured.

Structures are written as SMILES. A value given as a limit tells only on which side of the number the result lay.

One test has as its target recombinant SARS-CoV-2 M^pro (Severe acute respiratory syndrome coronavirus 2 (2019-nCoV) (SARS-CoV-2), UniProt P0DTD1). As to the kind of experiment: Inhibition of SARS-CoV-2 M^pro enzyme activity (fluorescent substrate assay). Format: biochemical. Conditions: inhibition of SARS-CoV-2 M^pro enzyme activity; values given in μM; read-out: IC50.
For `CN(C(=O)C1CCC(F)(F)CC1)C1(C(=O)N[C@H](Cc2ccccc2)C(=O)C(=O)NCc2ccccn2)CC1` [Compound 167], the IC50 turned out to be 3.81 ± 0.17 µM.
On the same count and under the same terms, the result for `C[C@@H](NC(=O)C1CCC(F)(F)CC1)C(=O)N[C@H](Cc1ccccc1)C(=O)C(=O)NCc1nc2ccccc2s1` [Compound 355] reads over 2.5 µM.
For `O=C(NCc1nccs1)C(=O)[C@@H](Cc1cccc(F)c1)NC(=O)c1ccccc1` [Compound 465], the IC50 came to 2.55 ± 0.02 µM.

Staying with this test, now noted: inhibition of SARS-CoV-2 M^pro enzyme activity; values in nM; read-out: IC50.
Take `O=C(NCc1nccs1)C(=O)[C@@H](Cc1ccccc1)NC(=O)[C@H]1CC(F)(F)CN1C(=O)CC1CCC(F)(F)CC1` [Compound 401]: the IC50 is 0.019 ± 0.0001 µM.
Still for that read-out and setting: the result for `C[C@@H](NC(=O)CC1CC(F)(F)C1)C(=O)N[C@H](Cc1ccco1)C(=O)C(=O)NCc1ccccn1` [Compound 364] reads 0.0751 ± 0.0001 µM.
For the compound `O=C(CNC(=O)C1CCC(F)(F)CC1)N[C@H](Cc1ccc(Cl)cc1Cl)C(=O)C(=O)NCc1ccccn1` [Compound 450], the IC50 was 0.0454 ± 0.0002 µM.
With `O=C(NCc1ccccn1)C(=O)[C@@H](Cc1ccccc1)NC(=O)C1(NC(=O)[C@H]2CC[C@@H](F)CC2)CC1` [Compound 162], the IC50 was determined as 0.0175 ± 0.0008 µM.
With `CC1(C)C(C(=O)NC2CC(F)(F)C2)C1C(=O)N[C@H](Cc1ccccc1)C(=O)C(=O)NCc1nccs1` (some centres unmarked) [Compound 556], the concentration for half-maximal inhibition (IC50) turned out to be 0.2035 ± 0.0006 µM.
Consider `C[C@@H](NC(=O)C1CCC(F)(F)CC1)C(=O)N[C@H](Cc1ccccc1)C(=O)C(=O)NCc1ncccn1` [Compound 337], for which the IC50 worked out at 0.0879 ± 0.0146 µM.
Turning to `O=C(Cn1cc(C2CCC(F)(F)CC2)cn1)N[C@H](Cc1ccccc1)C(=O)C(=O)NCc1nccs1` [Compound 513], the IC50 worked out at 0.0304 ± 0.0008 µM.
Consider `O=C(NCc1ccccn1)C(=O)[C@@H](Cc1ccccc1)NC(=O)C1(C(=O)NC2CCC(F)(F)CC2)CC1` [Compound 319], for which the IC50 worked out at 0.0371 ± 0.0029 µM.
As to `C[C@@H](NC(=O)C1CCc2cc(F)ccc2O1)C(=O)N[C@H](Cc1ccccc1)C(=O)C(=O)NCc1ccccn1` (some centres unmarked) [Compound 85], the IC50 was found to be 0.0567 ± 0.0027 µM.
As to `O=C(NCc1ccccn1)C(=O)[C@@H](Cc1ccccc1)NC(=O)C1(NC(=O)C23CC4CC(CC(O)(C4)C2)C3)CCC1` [Compound 199], the half-inhibitory concentration (IC50) stood at 0.0527 ± 0.001 µM.
Consider `O=C(NCc1ccccn1)C(=O)[C@@H](Cc1ccccc1)NC(=O)C1(NC(=O)C2CCCC(F)(F)C2)CCC1` (some centres unmarked) [Compound 193], for which the IC50 was found to be 0.0167 ± 0.0004 µM.
Regarding `C[C@@H](NC(=O)COc1ccc(Cl)c(Cl)c1)C(=O)N[C@H](Cc1ccccc1)C(=O)C(=O)NCc1ccccn1` [Compound 71], the IC50 turned out to be 0.0109 ± 0.0005 µM.
Same read-out and setting: the result for `C[C@@H](OCc1ccc(Cl)cc1)C(=O)N[C@H](Cc1ccccc1)C(=O)C(=O)NCc1ccc(Cl)cn1` [Compound 45] reads 0.0147 ± 0.001 µM; that for `O=C(NCc1ccccn1)C(=O)[C@@H](Cc1ccccc1)NC(=O)[C@H]1C[C@@H]2C[C@@H]2N1C(=O)CC1CCC(F)(F)CC1` [Compound 273], 0.017 ± 0.0001 µM; that for `CC(C)(OCc1ccc(Cl)cc1)C(=O)N[C@H](Cc1ccccc1)C(=O)C(=O)NCc1nccs1` [Compound 485], 0.0333 ± 0.0017 µM.
On the same count and under the same terms, the result for `O=C(CNC(=O)C1(F)CCCCC1)N[C@H](Cc1ccccc1)C(=O)C(=O)NCc1cscn1` [Compound 428] reads 0.0171 ± 0.0001 µM.
As for `O=C(NCc1ccccn1)C(=O)[C@@H](Cc1ccccc1)NC(=O)[C@H]1COCCN1C(=O)[C@H]1CC[C@@H](C(F)(F)F)CC1` [Compound 287], the IC50 amounted to 0.0241 µM.
Turning to `CC(C)(C)C(NC(=O)c1ccc(F)cc1)C(=O)N[C@H](Cc1ccccc1)C(=O)C(=O)NCc1ccccn1` (some centres unmarked) [Compound 252], the IC50 came out at 0.0949 ± 0.0027 µM.
Take `CC(C)(C(=O)N[C@H](Cc1ccccc1)C(=O)C(=O)NCc1ccccn1)n1cc(-c2cccc(F)c2)cn1` [Compound 329]: the half-maximal inhibitory concentration (IC50) worked out at 0.0194 ± 0.0018 µM.
Regarding `C[C@@H](NC(=O)C1CCC(F)(F)CC1)C(=O)N[C@H](Cc1ccccc1)C(=O)C(=O)NCc1ccc(F)cn1` [Compound 336], the IC50 is 0.015 ± 0.0008 µM.
Consider `O=C(CC1CCCC1)NC1(C(=O)N[C@H](Cc2ccccc2)C(=O)C(=O)NCc2ccccn2)CCC1` [Compound 197], for which the IC50 stood at 0.0138 ± 0.0008 µM.
In the case of `CC(C)[C@@H](NC(=O)C1CCC(F)(F)CC1)C(=O)N[C@H](Cc1ccccc1)C(=O)C(=O)NCc1nccs1` [Compound 536], the IC50 worked out at 0.0248 ± 0.0003 µM.
On to `CCC[C@@H](NC(=O)[C@@H](C)NC(=O)C1CCC(F)(F)CC1)C(=O)C(=O)NCc1ccccn1` [Compound 358], for which the IC50 is 0.0932 ± 0.0011 µM.
Consider `Cc1cc(-c2cc(Cl)cc(C#N)c2)nn1CC(=O)N[C@H](Cc1ccccc1)C(=O)C(=O)NCc1nccs1` [Compound 515], for which the IC50 is 0.0262 ± 0.0003 µM.
With `C[C@@H](NC(=O)[C@H]1CC[C@@H](NC(=O)OC(C)(C)C)CC1)C(=O)N[C@H](Cc1ccccc1)C(=O)C(=O)NCc1ccccn1` [Compound 133], the IC50 is 0.198 ± 0.0096 µM.
For `O=C(NCc1ccccn1)C(=O)[C@@H](Cc1ccccc1)NC(=O)C1(NC(=O)C2CCCCCC2)CCC1` [Compound 195], the IC50 was 0.0308 ± 0.0001 µM.
As for `O=C(CNC(=O)c1ccc(Cl)c(Cl)c1)N[C@H](Cc1ccccc1)C(=O)C(=O)NCc1ccccn1` [Compound 440], the IC50 stood at 0.0204 ± 0.0004 µM.
Same read-out and setting: the result for `C[C@@H](NC(=O)N1CC2(C1)CC(F)(F)C2)C(=O)N[C@H](Cc1ccccc1)C(=O)C(=O)NCc1ccccn1` [Compound 298] reads 0.0149 ± 0.0001 µM; that for `CC(C)(OCc1ccc(F)c(F)c1)C(=O)N[C@H](Cc1ccccc1)C(=O)C(=O)NCc1ccccn1` [Compound 20], 0.0152 ± 0.0002 µM.
As for `CC(C)[C@@H](NC(=O)c1ccc(F)cc1)C(=O)N[C@H](Cc1ccccc1)C(=O)C(=O)NCc1ccccn1` [Compound 247], the IC50 was determined as 0.0382 ± 0.0028 µM.
Consider `C[C@H](OCc1ccccc1)C(=O)N[C@H](Cc1ccccc1)C(=O)C(=O)NCc1ccccn1` [Compound 10], for which the IC50 is 0.113 ± 0.0321 µM.
For the compound `C[C@@H](NC(=O)c1ccc(Cl)c(Cl)c1)C(=O)N[C@H](Cc1ccccc1)C(=O)C(=O)NCc1ccccn1` [Compound 99], the IC50 worked out at 0.0278 ± 0.0011 µM.
As for `C[C@@H](NC(=O)C1CCC(C(F)(F)F)CC1)C(=O)N[C@H](Cc1ccccc1)C(=O)C(=O)NCc1ccccn1` (some centres unmarked) [Compound 110], the IC50 was 0.0313 ± 0.0001 µM.
For the compound `C[C@@H](NC(=O)[C@H]1CC[C@H](C#N)CC1)C(=O)N[C@H](Cc1ccccc1)C(=O)C(=O)NCc1ccccn1` [Compound 117], the IC50 was found to be 0.0461 ± 0.0003 µM.
For the compound `C[C@@H](NC(=O)Cc1ccc(Cl)cc1)C(=O)N[C@H](Cc1ccccc1)C(=O)C(=O)NCc1ccccn1` [Compound 76], the IC50 is 0.023 ± 0.0011 µM.
Turning to `O=C(CNC(=O)C1CCC(F)(F)C1)N[C@H](Cc1ccccc1)C(=O)C(=O)NCc1nccs1` (some centres unmarked) [Compound 391], the IC50 was 0.109 ± 0.0086 µM.
Regarding `O=C(NCc1ccccn1)C(=O)[C@@H](Cc1ccccc1)NC(=O)C1(NC(=O)C2CCC(F)(F)CC2)Cc2ccccc2C1` [Compound 243], the IC50 is 0.0184 ± 0.0001 µM.
With `CC(C)(NC(=O)CCC1CCC(F)(F)CC1)C(=O)N[C@H](Cc1ccccc1)C(=O)C(=O)NCc1ccccn1` [Compound 171], the IC50 stood at 0.0089 ± 0.0004 µM.
As for `C[C@@H](NC(=O)C(C)(C)Oc1ccc(Cl)cc1F)C(=O)N[C@H](Cc1ccccc1)C(=O)C(=O)NCc1ccccn1` [Compound 82], the IC50 is 0.0058 ± 0.0001 µM.
Consider `C[C@@H](NC(=O)C1(c2ccccc2)CC1)C(=O)N[C@H](Cc1ccccc1)C(=O)C(=O)NCc1ccccn1` [Compound 74], for which the IC50 is 0.0233 ± 0.0004 µM.
Regarding `O=C(NCc1ccccn1)C(=O)[C@@H](Cc1ccccc1)NC(=O)C1(NC(=O)c2ccc(F)cc2)CCC1` [Compound 215], the IC50 stood at 0.0137 ± 0.0009 µM.
For the compound `C[C@@H](NC(=O)CC1CCC(F)(F)CC1)C(=O)N[C@H](Cc1ccccc1)C(=O)C(=O)NCc1ccccn1` [Compound 125], the IC50 turned out to be 0.0197 ± 0.0012 µM.
For `CC(C)(C)C[C@@H](NC(=O)C1CCC(F)(F)CC1)C(=O)N[C@H](Cc1ccccc1)C(=O)C(=O)NCc1ccccn1` [Compound 224], the IC50 turned out to be 0.0258 ± 0.0013 µM.
On the same count and under the same terms, the result for `C[C@@H](NC(=O)COc1ccc(Cl)cc1)C(=O)N[C@H](Cc1ccccc1)C(=O)C(=O)NCc1ccccn1` [Compound 84] reads 0.04 ± 0.0024 µM; that for `O=C(CC1CCC(F)(F)CC1)NC1(C(=O)N[C@H](Cc2ccccc2)C(=O)C(=O)NCc2ccccn2)Cc2ccccc2C1` [Compound 244], 0.0151 ± 0.0001 µM.
Consider `C[C@@H](NC(=O)C1CCC(F)(F)CC1)C(=O)N[C@H](CC1CCCCC1)C(=O)C(=O)NCc1ccccn1` [Compound 365], for which the IC50 came to 0.0231 ± 0.001 µM.
`O=C(NCc1nccs1)C(=O)[C@@H](Cc1ccccc1)NC(=O)C1(NC(=O)C2CCC(F)(F)CC2)CC1` [Compound 538]: the IC50 is 0.0335 ± 0.0015 µM.
As to `COC[C@@H](NC(=O)CC1CCC(F)(F)CC1)C(=O)N[C@H](Cc1ccccc1)C(=O)C(=O)NCc1cscn1` [Compound 432], the IC50 was determined as 0.0115 ± 0.0001 µM.
For the compound `C[C@@H](NC(=O)C(C#N)Cc1ccccc1)C(=O)N[C@H](Cc1ccccc1)C(=O)C(=O)NCc1ccccn1` (some centres unmarked) [Compound 65], the IC50 came out at 0.0212 ± 0.0008 µM.
Still for that read-out and setting: the result for `O=C(NCc1nccs1)C(=O)[C@@H](Cc1ccccc1)NC(=O)C1(NC(=O)C2CCC(F)(F)CC2)CCC1` [Compound 539] reads 0.0218 ± 0.0005 µM; that for `O=C(NCc1nccs1)C(=O)[C@@H](Cc1ccccc1)NC(=O)n1nc(C(F)(F)F)cc1-c1ccc(F)cc1` [Compound 531], 0.598 ± 0.0028 µM.
In the case of `O=C(O)C[C@@H](NC(=O)CC1CC(F)(F)C1)C(=O)N[C@H](Cc1ccccc1)C(=O)C(=O)NCc1nccs1` [Compound 572], the IC50 was 0.0338 ± 0.0025 µM.
Turning to `C[C@@H](NC(=O)COc1ccc2ccccc2c1)C(=O)N[C@H](Cc1ccccc1)C(=O)C(=O)NCc1ccccn1` [Compound 91], the IC50 amounted to 0.0484 ± 0.002 µM.
For `CC1(C)[C@@H]2[C@@H](C(=O)N[C@H](Cc3ccccc3)C(=O)C(=O)NCc3ccccn3)N(C(=O)C3CCC(F)(F)CC3)C[C@@H]21` [Compound 262], the IC50 came to 0.9337 ± 0.005 µM.
With `CC(C)(NC(=O)[C@H](NC(=O)c1cnccn1)C1CCCCC1)C(=O)N[C@H](Cc1ccccc1)C(=O)C(=O)NCc1ccccn1` [Compound 180], the IC50 is 0.0318 ± 0.0009 µM.
As for `O=C(CN1C(=O)CN(c2cc(F)c(F)c(F)c2)C1=O)N[C@H](Cc1ccccc1)C(=O)C(=O)NCc1nccs1` [Compound 522], the IC50 came out at 0.0747 ± 0.0042 µM.
